Tests used:
[1] = system: balloon-injured rat carotid artery; test: Macrophage infiltration into injured arterial wall (CD11b/MAC1 immunostaining); format: in vivo, Sprague-Dawley rats
Experimental: (§1) In order to address the mechanisms underlying the effect of copper chelation on neointima formation, TTM was administered for 2 weeks before the balloon injury and daily after that until the animals were euthanized at the 4th and 7th day after the procedure. Accordingly, TTM-free animals euthanized 4 and 7 days after the injury were used as controls.
(§2) Macrophage migration was evaluated by immunostaining with the macrophage-specific monoclonal antibody CD11b (MAC1) in acetone/ethanol fixed sections. To quantitate the extent of macrophage invasion, the area occupied by MAC1-positive cells as a percentage of the total area of the neointima was determined. The number of SMCs in the injured artery was counted at day 4, 7 and 14 by the modified method of Prescott et al. Briefly, the cross-sections were subjected to immunohistostaining against α-smooth muscle actin using a commercially available detection system (DAKO) and counter-stained with hematoxylin. The number of nuclei that were accompanied by α-smooth muscle actin-positive cytoplasm was counted at a magnification of ×40 in 10 independent sections from each rat by an observer in a blind manner.

[2] = system: balloon-injured rat carotid artery; test: Cell proliferation in injured arterial wall (α-smooth muscle actin and PCNA immunostaining); format: in vivo, Sprague-Dawley rats
Experimental: as §1
Proliferating cell nuclear antigen (PCNA) analysis was used to quantify the proliferative activity of cells at the balloon injury sites, and it was performed according to Siitonen et al. Briefly, PCNA-positive cells were counted in the vessel cross sections using a standard light microscope equipped with an ocular reticule (magnification ×10) and a ×40 objective. At least 500 nuclei were counted from each slide. The sections were photographed under low power, the images were video-digitized, and stored in the image analysis system (Qwin Lite 2.2, Leica). Staining results were expressed as percentage of PCNA-immunoreactive cell nuclei. Faint diffuse nuclear staining seen in some tissue sections was not included in the PCNA score.
as §2

[3] = system: serum ceruloplasmin; test: Serum ceruloplasmin (surrogate marker of free copper) in rats; format: in vivo, Sprague-Dawley rats; settings: daily 10 mg/kg TTM within 4 weeks
Experimental: Copper status in mammals treated with TTM cannot be reliably followed by measuring total serum copper level because the chelated copper will still be detected. Serum ceruloplasmin, whose synthesis is directly regulated by the bio-availability of copper to the liver, is a more accurate indicator of free copper and is used as a surrogate marker of free copper status Schosinksy et al., 1974, Clin. Chem. 20:1556-1563. Serum ceruloplasmin was assessed as baseline level before the TTM-treatment, as well as on the day of the injury and on the final day. Blood (0.5 to 1 ml) was obtained from the tail vein after anesthesia was centrifuged for 10 minutes at 2000×G and the serum was frozen at −20° C. until assay. Ceruloplasmin oxidative activity was measured as described previously (Schosinsky et al., 1974, Clin. Chem. 20:1556-1563).

[4] = rat, in vivo, 10 mg/kg

SMILES: [NH4+].[NH4+].[SH-].[SH-].[S]=[Mo]=[S] [TTM, ammonium tetrathiomolybdate]
- MAC1 positive cells in controls compared to treated rats ([1]; 4 and 7 days after the injury): marked increase
- macrophages in the neointima vs control group ([1]; 4 days after injury): not detectably different
- macrophages within the arterial wall ([1]; any time point after the injury (4 and 7 days)): very few macrophages were present
- macrophages vs controls ([1]; day 7 after injury): more pronounced in the controls
- SMA-positive cells in the neointima vs TTM-free rats ([2]; 7 and 14 days after the injury): significantly less abundant
- PCNA-positive cells in the neointimal area ([2]; 14 days after balloon angioplasty, 10 mg/kg, 2 weeks before/2 weeks after injury, n=5, P<0.05): significant reduction
- SMA-positive cells in the neointima vs TTM-free rats ([2]; day 4 after the balloon injury): No significant difference
- ceruloplasmin reduction to [3]: 0-20 % of its baseline level
- effects upon visual inspection of the animals [4]: without detectable effects

Reference: patent publication US20090123565A9, “Copper-dependent non-traditional pro-inflammatory cytokine export and methods, compositions and kits relating thereto” (Maine Medical Center Research Institute, priority 2001, published 2009)
